Among the test systems are Escherichia coli C25; Escherichia coli UB1005; Bacillus megaterium Bm11.
Experiment in all cases: ≥ marks a high value that may be exact or a test limit, other limits are often not marked, values filed in µg/mL are converted to µM
The test system of experiment [1] is Pseudomonas aeruginosa ATCC 27853.
Experiment [2] deals with Bacillus subtilis KCTC 2217.
The test system of experiment [3] is Acinetobacter baumannii KCTC 2508.
The subject of experiment [4] is Staphylococcus aureus KCTC 1621.
Experiment [5] relates to Staphylococcus aureus CCARM 3095.
For experiment [6], the system named is Pseudomonas aeruginosa CCARM 2095.
Experiment [7] has as its system Salmonella typhimurium KCTC 1926.
Experiment [8] deals with Staphylococcus aureus CCARM 3089.
Experiment [9] relates to Pseudomonas aeruginosa KCTC 1637.
Experiment [10] has as its system Staphylococcus epidermidis KCTC 1917.
Experiment [11] deals with Bacillus subtilis KCTC 3068.
Experiment [12] deals with Staphylococcus aureus CCARM 3090.
For experiment [13], the system named is Escherichia coli KCTC 1682.
Experiment [14] relates to Enterococcus faecium ATCC 51559.
Experiment [15] concerns Staphylococcus aureus ATCC 25923.
The subject of experiment [16] is Staphylococcus aureus ATCC 43300.
The subject of experiment [17] is Staphylococcus epidermidis ATCC 12228.
In experiment [18] the test system is Bacillus subtilis CMCC 63501.
In experiment [19] the test system is Salmonella typhimurium ATCC 7731.
The subject of experiment [20] is Salmonella enterica subsp. enterica serovar Pullorum C79-13.
Experiment [21] deals with Staphylococcus aureus ATCC 29213.
Experiment [22] deals with Staphylococcus aureus USA 300.
Experiment [23] concerns Escherichia coli ATCC 25922.
Experiment [24] relates to Candida albicans ATCC 90028.
Experiment [25] concerns Pseudomonas aeruginosa PAO1.
The subject of experiment [26] is Staphylococcus aureus ATCC 6538P.
Experiment [27] relates to Pseudomonas aeruginosa Ps4.
The subject of experiment [28] is Streptococcus pyogenes ATCC 49399.
The test system of experiment [29] is Enterococcus faecalis ATCC 19433.
Experiment [30] concerns Enterobacter cloacae ATCC 49141.
Experiment [31] deals with Pseudomonas aeruginosa ATCC 9027.
Experiment [32] relates to Staphylococcus aureus USA 100.
Experiment [33] has as its system Klebsiella aerogenes ATCC 35029.

Structures are written as SMILES. ≈ marks a conversion by molar mass, not a printed value. Where “and” joins values, the source holds several entries; their conditions need not be identical. Equal entries are not always repeated.

As a reminder, the MIC is the least concentration at which growth counts as inhibited. A low value points to greater potency. With `CC(C)C[C@H](NC(=O)[C@H](CC(C)C)NC(=O)[C@@H]1CCCN1C(=O)[C@H](CCCCN)NC(=O)[C@H](CCCCN)NC(=O)[C@H](CC(C)C)NC(=O)[C@H](CC(C)C)NC(=O)[C@H](CCCCN)NC(=O)[C@H](CCCCN)NC(=O)[C@H](Cc1c[nH]c2ccccc12)NC(=O)[C@@H](N)CCCCN)C(=O)N[C@@H](CCCCN)C(N)=O` [KWKKLLKKPLLK], the values for the MIC in experiment [1], in [2] and in experiment [3] were above 25 µM, 6.25 µM (≈ 9.51 µg/mL) and 25 µM (≈ 38.1 µg/mL), respectively.

Take `CC[C@H](C)[C@H](NC(=O)[C@@H](NC(=O)[C@H](Cc1cnc[nH]1)NC(=O)[C@H](CCCN=C(N)N)NC(=O)[C@H](C)NC(=O)[C@H](CCCN=C(N)N)NC(=O)[C@H](CC(C)C)NC(=O)[C@H](CO)NC(=O)[C@H](C)NC(=O)[C@H](CC(C)C)NC(=O)[C@@H](N)CC(N)=O)[C@@H](C)O)C(=O)N1CCC[C@H]1C(=O)N[C@@H](CCC(N)=O)C(=O)N[C@@H](CCCN=C(N)N)C(=O)N[C@@H](CCCCN)C(=O)N[C@@H](Cc1ccccc1)C(=O)NCC(=O)N[C@@H](CCCN=C(N)N)C(=O)N[C@@H](CCCN=C(N)N)C(=O)O` [NLASLRARHTIPQRKFGRR]: the MIC worked out at 12.5 µM (≈ 28.5 µg/mL) in experiment [4]; 25 µM (≈ 56.9 µg/mL) in experiment [5]; 25 µM (≈ 56.9 µg/mL) in experiment [6]; 6.3 µM (≈ 14.3 µg/mL) in experiment [7]; 12.5 µM (≈ 28.5 µg/mL) in experiment [8]; 6.3 µM (≈ 14.3 µg/mL) in experiment [9]. Also, the MIC in [10] is 6.3 µM (≈ 14.3 µg/mL); in experiment [11], 6.3 µM (≈ 14.3 µg/mL); in [12] it was 25 µM (≈ 56.9 µg/mL); in [13], 6.3 µM (≈ 14.3 µg/mL); in experiment [14], at least 50 µM.

For `CC[C@H](C)[C@H](NC(=O)CNC(=O)[C@H](CCCN=C(N)N)NC(=O)[C@H](Cc1ccc(O)cc1)NC(=O)[C@@H](NC(=O)[C@H](CCCN=C(N)N)NC(=O)[C@H](Cc1ccccc1)NC(=O)[C@H](Cc1c[nH]c2ccccc12)NC(=O)[C@@H](N)CCCCN)C(C)C)C(=O)N[C@@H](Cc1ccc(O)cc1)C(N)=O` [KWFRVYRGIY], the figures for the MIC (against Escherichia coli C25; in experiment [15]) were at least 720 µM and 180 µM (≈ 250 µg/mL), respectively.

For `CC(C)C[C@H](NC(=O)[C@H](CCCCN)NC(=O)[C@H](CCCCN)NC(=O)[C@H](C)NC(=O)[C@@H](NC(=O)[C@H](CCCCN)NC(=O)[C@H](CO)NC(=O)[C@H](CC(C)C)NC(=O)[C@H](Cc1c[nH]c2ccccc12)NC(=O)[C@H](CC(C)C)NC(=O)[C@H](CCCCN)NC(=O)[C@H](CCCCN)NC(=O)[C@H](C)NC(=O)[C@@H](NC(=O)[C@H](CCCCN)NC(=O)[C@H](CO)NC(=O)[C@H](CC(C)C)NC(=O)[C@H](Cc1c[nH]c2ccccc12)NC(=O)[C@H](CC(C)C)NC(=O)[C@H](CCCCN)NC(=O)[C@H](CCCCN)NC(=O)[C@H](C)NC(=O)[C@@H](NC(=O)[C@H](CCCCN)NC(=O)[C@H](CO)NC(=O)[C@H](CC(C)C)NC(=O)[C@@H](N)Cc1c[nH]c2ccccc12)[C@@H](C)O)[C@@H](C)O)[C@@H](C)O)C(N)=O` [WLSKTAKKLWLSKTAKKLWLSKTAKKL], the MIC in experiment [1] amounted to 2 µM (≈ 6.37 µg/mL); in experiment [16], 32 µM (≈ 102 µg/mL); in experiment [17], 32 µM (≈ 102 µg/mL); in [18], 8 µM (≈ 25.5 µg/mL); in experiment [19] it was 8 µM (≈ 25.5 µg/mL); in [20] it was 2 µM (≈ 6.37 µg/mL). Moreover, the MIC came to 32 µM (≈ 102 µg/mL) in [21] and 2 µM (≈ 6.37 µg/mL) in the experiment with Escherichia coli UB1005.

On to `CC[C@H](C)[C@H](NC(=O)[C@H](CCCN=C(N)N)NC(=O)[C@@H](NC(=O)[C@H](CCCN=C(N)N)NC(=O)[C@H](Cc1c[nH]c2ccccc12)NC(=O)[C@H](Cc1ccccc1)NC(=O)[C@@H]1CCCN1)[C@@H](C)CC)C(=O)N[C@@H](CCCN=C(N)N)C(=O)N[C@@H](CCCN=C(N)N)C(N)=O` [PFWRIRIRR], for which the MIC in [1] is 40 µM (≈ 51.9 µg/mL); in the experiment on Bacillus megaterium Bm11 it was 1.25 µM (≈ 1.62 µg/mL); in experiment [22], 12.5 µM (≈ 16.2 µg/mL); in experiment [23] it was 8.71 µM and 10 µM; in experiment [24], at least 100 µM; in experiment [25], 24.6 µM (≈ 32 µg/mL). Also, the MIC in [26] is at least 40 µM; in [27] it was at least 48.1 µM; in [28] it was 2.5 µM (≈ 3.25 µg/mL); in experiment [29] it was at least 40 µM; in experiment [30], at least 40 µM; in experiment [31], 100 µM (≈ 130 µg/mL). For the same compound, the MIC in experiment [32] is 12.5 µM (≈ 16.2 µg/mL); in [33], at least 40 µM.

Source of the values: DBAASP.
